Patent US5523299A, “5-(2-oxyphenyl)-pyrrole derivatives as dopamine D3 receptor antagonists” (SmithKline Beecham PLC, priority 1992, dated 1996)
Counter-ions that a name gives are not always drawn.

biological target: human D3 dopamine receptors (Homo sapiens, UniProt P35462); test: [125I] iodosulpride displacement binding to cloned dopamine receptors expressed in CHO cells; settings: displacement of 0.1 nM [125I] iodosulpride, cloned receptor in CHO cell membranes, 30 min at 37° C.
Protocol: The inhibition constants (Ki) of test compounds for displacement of [^125 I] iodosulpride binding to human D2 and D3 dopamine receptors expressed in CHO cells have been determined. […] Cultures were grown as monolayers or in suspension in standard cell culture media. Cells were recovered by scraping (from monolayers) or by centrifugation (from suspension cultures), and were washed two or three times by suspension in phosphate buffered saline followed by collection by centrifugation. Cell pellets were stored frozen at -40° C. Crude cell membranes were prepared by homogenisation followed by high-speed centrifugation, and characterisation of cloned receptors achieved by radioligand binding.
Cell pellets were gently thawed at room temperature, and resuspended in about 20 volumes of ice-cold 50 mM Tris salts (pH 7.4 @37° C.), 20 mM EDTA, 0.2M sucrose. The suspension was homogenised using an Ultra-Turrax at full speed for 15 sec. The homogenate was centrifuged at 18,000 r.p.m for 20 min at 4° C. in a Sorvall RC5C centrifuge. The membrane pellet was resuspended in ice-cold 50 mM Tris salts (pH 7.4 @37° C.), using an Ultra-Turrax, and recentrifuged at 18,000 r.p.m for 15 min at 4° C. in a Sorvall RC5C. The membranes were washed two more times with ice-cold 50 mM Tris salts (pH 7.4 @37° C.). The final pellet was resuspended in 50 mM Tris salts (pH 7.4 @37° C.), and the protein content determined using bovine serum albumin as a standard (Bradford, M. M. (1976) Anal. Biochem. 72, 248-254).
Crude cell membranes were incubated with 0.1 nM [^125 I] iodosulpride (~2000 Ci/mmol; Amersham, U.K.), and the test compound in a buffer containing 50 mM Tris salts (pH 7.4 @37° C.), 120 mM NaCl, 5 mM KCl, 2 mM CaCl2, 1 mM MgCl2, 0.1% (w/v) bovine serum albumin, in a total volume of 1 ml for 30 min at 37° C. Following incubation, samples were filtered using a Brandel Cell Harvester, and washed three times with ice-cold 50 mM Tris salts (pH 7.4 @37° C.), 120 mM NaCl5 mM KCl2 mM CaCl2, 1 mM MgCl2. The radioactivity on the filters was measured using a Cobra gamma counter (Canberra Packard). Non-specific binding was defined as the radioligand binding remaining after incubation in the presence of 100 μM iodosulpride. For competition curves, 14 concentrations (half-log dilutions) of competing cold drug were used.
Competition curves were analysed simultaneously whenever possible using non-linear least-squares fitting procedures, capable of fitting one, two or three site models.

Chain of human D3 dopamine receptors (P35462 whole entry): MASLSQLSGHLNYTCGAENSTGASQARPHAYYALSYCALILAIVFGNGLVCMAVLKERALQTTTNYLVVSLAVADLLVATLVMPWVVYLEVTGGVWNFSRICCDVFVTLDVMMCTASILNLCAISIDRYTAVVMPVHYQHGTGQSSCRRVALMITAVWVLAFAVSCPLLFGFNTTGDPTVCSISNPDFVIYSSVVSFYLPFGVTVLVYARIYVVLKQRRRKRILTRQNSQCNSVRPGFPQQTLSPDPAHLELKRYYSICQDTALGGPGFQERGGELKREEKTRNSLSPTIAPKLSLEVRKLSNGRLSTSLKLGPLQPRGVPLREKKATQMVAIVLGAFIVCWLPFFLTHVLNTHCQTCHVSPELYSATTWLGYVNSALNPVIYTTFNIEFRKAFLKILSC

IC50, 0.2 to 26 nM:
CCS(=O)(=O)c1ccc(OC)c(-c2ccc(CN3CCCCC3)[nH]2)c1 [Example 2, 2-(5-Ethylsulphonyl-2-methoxyphenyl)-5-(1-piperidinylmethyl)-1H-pyrrole]
CCN(Cc1ccccc1)Cc1ccc(-c2cc(S(=O)(=O)CC)cc(Br)c2OC)[nH]1 [Example 30, 2-(3-Bromo-5-ethylsulphonyl-2-methoxyphenyl)-5-(N-benzyl-N-ethyl)aminomethyl-1H-pyrrole hydrochloride]
CCS(=O)(=O)c1ccc(OC)c(-c2ccc(C(C)N3CCCCC3)[nH]2)c1 (stereo not shown) [Example 16, 2-(5-Ethylsulphonyl-2-methoxyphenyl)-5-[1-(1-piperidinyl)-ethyl)-1H-pyrrolehydrochloride]
COc1c(Br)cc(Br)cc1-c1ccc(CN2CCCCC2)[nH]1 [Example 1, 2-(3,5-Dibromo-2-methoxyphenyl)-5-(1-piperidinylmethyl)-1H-pyrrole hydrochloride]
COc1cc(Br)cc(-c2ccc(C(C)N3CCCCC3)[nH]2)c1OC (stereo not shown) [Example 36, 2-(2,3-Dimethoxy-5-bromophenyl)-5-[1-(1-piperidinyl)ethyl]-1H-pyrrole hydrochloride]
CCS(=O)(=O)c1ccc(OC)c(-c2ccc(C(C)N3CCCCC3)[nH]2)c1 (single isomer, unassigned; slower eluting) [Example 49, 2-(5-Ethylsulphonyl-2-methoxyphenyl)-5-[1-(1-piperidinyl)-ethyl)-1H-pyrrole, slower eluting enantiomer]
CCN(Cc1ccccc1)Cc1ccc(-c2cc(S(=O)(=O)CC)ccc2OC)[nH]1 [Example 27, 2-(5-Ethylsulphonyl-2-methoxyphenyl)-5-(N-benzyl-N-ethyl)-aminomethyl-1H-pyrrole hydrochloride]
